≈ marks a conversion by molar mass, not a printed value.
Legend:
[1] = tested on: Mycobacterium tuberculosis; experiment: Antimycobacterial activity against Mycobacterium tuberculosis H37Rv ATCC 27294 after 28 days by agar dilution method; type: functional; conditions: H37Rv ATCC 27294, 672 h
[2] = Cytotoxicity against HEK293T cells assessed as cell growth inhibition at 50 ug/mL after 72 hrs by MTT assay; type: cell-based, HEK-293T; conditions: human, read-out: GI

SMILES | MIC ([1]; read-out: MIC) | inhibition at 72 h, 50 ug/mL [2] | MIC ([1]; read-out: MIC100) | MIC50 [1]
O=C(NCc1ccc(N2CCSCC2)cc1)c1c(-c2ccc3sc4ccccc4c3c2)nc2ccccn12 | 25 µg/mL |  |  | 
O=C(NCc1ccc(F)cc1)c1c(-c2ccc3sc4ccccc4c3c2)nc2ccccn12 | 3.13 µg/mL | 25.8% |  | 
O=C(NCc1ccc(Oc2ccc(F)cc2)cc1)c1c(-c2ccc3sc4ccccc4c3c2)nc2ccccn12 | 25 µg/mL |  |  | 
CC(C)(C)c1ccc(CNC(=O)c2c(-c3ccc4sc5ccccc5c4c3)nc3ccccn23)cc1 | 1.56 µg/mL | 18.8% | 3.22 µM | 
O=C(NCc1ccccc1)c1c(-c2ccc3sc4ccccc4c3c2)nc2ccccn12 | 3.13 µg/mL | 34.6% | 7.21 µM | 
O=C(NCc1ccc(Oc2ccc(OC(F)(F)F)cc2)cc1)c1c(-c2ccc3sc4ccccc4c3c2)nc2ccccn12 | 12.5 µg/mL |  |  | 
O=C(NCc1ccc(N2CCOCC2)cc1)c1c(-c2ccc3sc4ccccc4c3c2)nc2ccccn12 | 25 µg/mL |  |  | 
CC(C)(C)c1ccc(Oc2ccc(CNC(=O)c3c(-c4ccc5sc6ccccc6c5c4)nc4ccccn34)cc2)cc1 | 25 µg/mL |  |  | 
NC(=O)c1cnccn1 [PYRAZINAMIDE] | 50 µg/mL |  |  | 
O=C(NCc1ccc(OC(F)(F)F)cc1)c1c(-c2ccc3sc4ccccc4c3c2)nc2ccccn12 | 25 µg/mL |  |  | 
COc1ccc(CNC(=O)c2c(-c3ccc4sc5ccccc5c4c3)nc3ccccn23)cc1 | 6.25 µg/mL | 37% |  | 
O=C(NCc1ccc(Oc2ccc(Cl)cc2)cc1)c1c(-c2ccc3sc4ccccc4c3c2)nc2ccccn12 | 25 µg/mL |  |  | 
Cc1ccc(CNC(=O)c2c(-c3ccc4sc5ccccc5c4c3)nc3ccccn23)cc1 | 12.5 µg/mL |  |  | 
NNC(=O)c1ccncc1 [ISONIAZID] | 0.1 µg/mL |  |  | 
O=C(NCc1ccc(N2CCN(c3ccccc3F)CC2)cc1)c1c(-c2ccc3sc4ccccc4c3c2)nc2ccccn12 | 25 µg/mL |  |  | 
O=C(NCc1ccc(Oc2ccccc2)cc1)c1c(-c2ccc3sc4ccccc4c3c2)nc2ccccn12 | 6.25 µg/mL | 38.4% |  | 
O=C(NCc1ccc(N2CCC(Cc3ccccc3)CC2)cc1)c1c(-c2ccc3sc4ccccc4c3c2)nc2ccccn12 | 0.78 µg/mL | 34.8% | 1.3 µM | 
CC[C@@H](CO)NCCN[C@@H](CC)CO [ETHAMBUTOL] | 3.13 µg/mL |  |  | 
O=C(NCc1ccc(N2CCN(c3ccc(Cl)cc3)CC2)cc1)c1c(-c2ccc3sc4ccccc4c3c2)nc2ccccn12 | 1.56 µg/mL | 24.4% | 2.5 µM | 
O=C(NCc1ccc(N2CCN(Cc3ccccc3)CC2)cc1)c1c(-c2ccc3sc4ccccc4c3c2)nc2ccccn12 | 25 µg/mL |  |  | 
COc1ccc(CCNC(=O)c2c(C)nc3ccccn23)cc1 |  |  |  | 2.63 µM (≈ 0.814 µg/mL)
O=C(NCc1ccc(C(F)(F)F)cc1)c1c(-c2ccc3sc4ccccc4c3c2)nc2ccccn12 | 12.5 µg/mL |  |  | 
O=C(NCc1ccc(Cl)cc1)c1c(-c2ccc3sc4ccccc4c3c2)nc2ccccn12 | 25 µg/mL |  |  | 
CCc1nc2ccccn2c1C(=O)NCc1ccc(Oc2ccc(OC(F)(F)F)cc2)cc1 |  |  |  | 0.013 µM (≈ 0.00592 µg/mL)
Cc1nc2ccccn2c1C(=O)NCc1ccccc1 |  |  |  | 1.86 µM (≈ 0.493 µg/mL)

Source: ChEMBL document CHEMBL3808383, “Synthesis and antitubercular evaluation of novel dibenzo[b,d]thiophene tethered imidazo[1,2-a]pyridine-3-carboxamides” (Bioorg Med Chem Lett, 2016)
